From US20210369816A1, “FORMULATIONS OF ABALOPARATIDE, TRANSDERMAL PATCHES THEREOF, AND USES THEREOF” (priority 2016, published 2021)

Tests used:
[1] = system: rat femur fracture model; assay: Rat femur fracture model (fracture healing); format: in vivo
Excerpt: Certain embodiments of the methods disclosed herein also include the use of the microprojection arrays as described herein in their various embodiments to accelerate fracture healing in a patient who has suffered one or more fractures and for which the fractures are not completely healed. Healing of bone fractures (eg long bone fractures) involves endochondral and intramembranous bone formation, which together form a callus that achieves union, stabilization, and gradual recovery of bone strength. […] Sixteen rats from each group were necropsied after 4 and 6 weeks of healing, with 12 fractured femurs per group used for micro-CT and biomechanical testing and the other 4 femurs used for micro-CT and histology.

[2] = system: ovariectomy-induced osteopenic rats and monkeys; details: ovariectomy-induced osteopenic rats and monkeys (Doyle 2013a; Doyle 2013b; Hattersley 2013); cited from earlier work
[3] = system: treated subjects; details: subcutaneous administration; cited from earlier work
[4] = 25 ug/kg/d sc daily, week 4, P<0.05 vs VEH

[Glu^22,25, Leu^23,28,31, Aib^29, Lys^26,30]hPTHrP(1-34)NH2 [abaloparatide]
callus stiffness, higher vs VEH (three-point bending) ([1]; 5 ug/kg/d sc daily, week 4, P<0.05 vs VEH): 60%
callus stiffness, higher vs VEH (three-point bending) ([1]; 5 ug/kg/d sc daily, week 6, P<0.05 vs VEH): 112%
callus peak load, higher vs VEH [1, 4]: 77%
callus stiffness, higher vs VEH (three-point bending) [1, 4]: 96%
callus area (histomorphometry) vs VEH ([1]; 5 and 25 ug/kg/d, week 4): significantly greater callus area
micro-CT of fracture calluses vs VEH ([1]; 5 and 25 ug/kg/d, weeks 4 and 6): significantly greater callus bone volume, bone volume fraction, and BMC
histologic scoring of cortical bridging across the fracture gap vs VEH ([1]; 5 or 25 ug/kg/d, week 4): significantly greater bridging
callus peak load vs VEH ([1]; both abaloparatide groups (5 and 25 ug/kg/d), week 6): numerically higher
bone loss [2]: complete reversal of bone loss
bone mineral density (BMD) and/or trabecular bone score (TBS) at the lumbar spine, total hip, and femoral neck [3]: improve
